SMILES strings stand for the structures. pIC50: −log10 of the molar value.

Adenosine kinase, sequence (Q64640 whole entry): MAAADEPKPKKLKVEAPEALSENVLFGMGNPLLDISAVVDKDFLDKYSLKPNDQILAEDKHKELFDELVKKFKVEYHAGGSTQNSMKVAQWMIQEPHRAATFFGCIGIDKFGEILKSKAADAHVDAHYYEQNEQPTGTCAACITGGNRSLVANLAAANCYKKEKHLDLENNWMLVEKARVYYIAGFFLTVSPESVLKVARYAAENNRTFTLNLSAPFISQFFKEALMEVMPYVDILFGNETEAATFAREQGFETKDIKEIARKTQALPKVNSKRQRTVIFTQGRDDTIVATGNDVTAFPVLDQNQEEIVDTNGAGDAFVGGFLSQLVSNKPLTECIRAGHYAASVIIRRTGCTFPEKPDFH

This assay has as its target Adenosine kinase (Rattus norvegicus, UniProt Q64640). In words: In vitro inhibition of Adenosine kinase of rat brain cytosol.
Consider `Nc1ncnc(N[C@@H]2O[C@H](CO)[C@@H](O)[C@H]2O)c1[S+]([O-])c1ccccc1` (some centres undefined), for which the pIC50 was < 5.00.

Regarding `Nc1ncnc(N[C@@H]2O[C@H](CO)[C@@H](O)[C@H]2O)c1S(=O)(=O)c1ccccc1`, the pIC50 was < 5.00.

`COC(=O)c1c(N)ncnc1N[C@@H]1O[C@H](C)[C@@H](O)[C@H]1O` gave a pIC50 of 5.21.

In the case of `Nc1ncnc(N[C@@H]2O[C@H](CO)[C@@H](O)[C@H]2O)c1C(=O)NCCO`, the negative logarithm of the IC50 (pIC50) is < 5.00.

Take `NC[C@H]1O[C@@H](Nc2ncnc(N)c2[N+](=O)[O-])[C@H](O)[C@@H]1O`: the pIC50 is 7.46.

For the compound `O=[N+]([O-])c1c(Nc2ccccc2)ncnc1N[C@@H]1O[C@H](CO)[C@@H](O)[C@H]1O`, the pIC50 was < 5.00.

Take `COC(=O)c1cncnc1N[C@@H]1O[C@H](CN)[C@@H](O)[C@H]1O`: the negative logarithm of the IC50 (pIC50) was 8.40.

In turn, `COC(=O)c1c(N)ncnc1N[C@@H]1O[C@H](CO)[C@@H](O)[C@H]1O` had a negative-log IC50 (pIC50) of 5.00.

For the compound `Nc1ncnc(N[C@@H]2O[C@H](CBr)[C@@H](O)[C@H]2O)c1[N+](=O)[O-]`, the negative-log IC50 (pIC50) was < 5.00.

With `COC(=O)c1cncnc1N[C@@H]1O[C@H](CO)[C@@H](O)[C@H]1O`, the pIC50 is 6.22.

For `COC(=O)c1c(Cl)ncnc1N[C@@H]1O[C@H](CO)[C@@H](O)[C@H]1O`, the pIC50 is < 5.00.

The compound `Nc1ncnc(N[C@@H]2O[C@H](CO)[C@@H](O)[C@H]2O)c1C1=NCCO1` showed a negative logarithm of the IC50 (pIC50) of 5.40.

As for `COC(=O)c1c(N)ncnc1N[C@@H]1O[C@H](CN)[C@@H](O)[C@H]1O`, the negative-log IC50 (pIC50) is 8.70.

As to `C[C@H]1O[C@@H](Nc2ncnc(N)c2[N+](=O)[O-])[C@H](O)[C@@H]1O`, the pIC50 is 5.40.

One may read the pIC50 as the negative decadic logarithm of the IC50, by convention in mol/L. Lower therefore signals a high IC50.

These data come from ChEMBL document CHEMBL1133950, “Synthesis and biological evaluation of clitocine analogues as adenosine kinase inhibitors” (Bioorg Med Chem Lett, 2001).
